Data published in ChEMBL document CHEMBL1201862, “PubChem BioAssay data set” (2004).
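96-well plates; 48 h exposure; 5 concentrations. Endpoints by linear interpolation between flanking doses. Not reached: highest tested concentration assigned. GI50 marks 50% less growth.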 Activity calls are given as the source filed them. Rule as the data show it: active = GI50 up to about 1.1 µM and inactive = higher.

Experiments:
Test in all cases: NCI-60 cell line screen, 48 h
786-0 = test system: 786-0
A498 = test system: A498
A549 = test system: A549
ACHN = test system: ACHN
BT-549 = test system: BT-549
CAKI-1 = test system: CAKI-1
CCRF-CEM = test system: CCRF-CEM
COLO 205 = test system: COLO 205
DU-145 = test system: DU-145
EKVX = test system: EKVX
HCC 2998 = test system: HCC 2998
HCT-116 = test system: HCT-116
HCT-15 = test system: HCT-15
HL-60 = test system: HL-60
HOP-62 = test system: HOP-62
HOP-92 = test system: HOP-92
HT-29 = test system: HT-29
IGROV-1 = test system: IGROV-1
K562 = test system: K562
KM12 = test system: KM12
LOX IMVI = test system: LOX IMVI
M14 = test system: M14
MCF7 = test system: MCF7
MDA-MB-231 = test system: MDA-MB-231
MDA-MB-435 = test system: MDA-MB-435
MDA-N = test system: MDA-N
MOLT-4 = test system: MOLT-4
Malme-3M = test system: Malme-3M
NCI-H226 = test system: NCI-H226
NCI-H23 = test system: NCI-H23
NCI-H460 = test system: NCI-H460
NCI-H522 = test system: NCI-H522
NCI/ADR-RES = test system: NCI/ADR-RES
OVCAR-3 = test system: OVCAR-3
OVCAR-4 = test system: OVCAR-4
OVCAR-5 = test system: OVCAR-5
OVCAR-8 = test system: OVCAR-8
PC-3 = test system: PC-3
RXF 393 = test system: RXF 393
SF-295 = test system: SF-295
SF-539 = test system: SF-539
SK-MEL-2 = test system: SK-MEL-2
SK-MEL-5 = test system: SK-MEL-5
SK-OV-3 = test system: SK-OV-3
SN12C = test system: SN12C
SNB-19 = test system: SNB-19
SR = test system: SR
SW-620 = test system: SW-620
T47D = test system: T47D
TK-10 = test system: TK-10
U-251 = test system: U-251
UACC-257 = test system: UACC-257
UACC-62 = test system: UACC-62
UO-31 = test system: UO-31
Hs-578T = test system: Hs-578T
RPMI-8226 = test system: RPMI-8226
SF-268 = test system: SF-268
SK-MEL-28 = test system: SK-MEL-28
SNB-75 = test system: SNB-75

In the case of `C1=N\c2ccc(cc2)/N=C\c2ccccc2OCc2cccc(n2)COc2ccccc2/1`, the GI50 (786-0) is reported as 45.5 µM (inactive), the GI50 (A498) is reported as > 100 µM (inactive) and the GI50 (A549) is reported as > 100 µM (inactive). For the same molecule, the GI50 (ACHN) was 61.4 µM (inactive), the GI50 (BT-549) was > 100 µM (inactive) and the GI50 (CAKI-1) was > 100 µM (inactive). For the same molecule, the GI50 (CCRF-CEM) was > 100 µM (inactive), the GI50 (COLO 205) was > 100 µM (inactive) and the GI50 (DU-145) was > 100 µM (inactive). The GI50 (EKVX) was > 100 µM (inactive), the GI50 (HCC 2998) was > 100 µM (inactive) and the GI50 (HCT-116) was > 100 µM (inactive). For the same molecule, the GI50 (HCT-15) was > 100 µM, the GI50 (HL-60) was > 100 µM (inactive) and the GI50 (HOP-62) was 30.1 µM (inactive). The GI50 (HOP-92) was > 100 µM (inactive), the GI50 (HT-29) was > 100 µM (inactive) and the GI50 (IGROV-1) was 75.2 µM (inactive). For the same molecule, the GI50 (K562) was > 100 µM (inactive), the GI50 (KM12) was > 100 µM (inactive) and the GI50 (LOX IMVI) was > 100 µM (inactive). The GI50 (M14) was > 100 µM (inactive), the GI50 (MCF7) was > 100 µM (inactive) and the GI50 (MDA-MB-231) was 78.3 µM (inactive). For the same molecule, the GI50 (MDA-MB-435) was > 100 µM (inactive), the GI50 (MDA-N) was > 100 µM (inactive) and the GI50 (MOLT-4) was > 100 µM (inactive). The GI50 (Malme-3M) was > 100 µM (inactive), the GI50 (NCI-H226) was > 100 µM (inactive) and the GI50 (NCI-H23) was > 100 µM (inactive). The GI50 (NCI-H460) was > 100 µM (inactive), the GI50 (NCI-H522) was > 100 µM (inactive) and the GI50 (NCI/ADR-RES) was > 100 µM (inactive). For the same molecule, the GI50 (OVCAR-3) was > 100 µM (inactive), the GI50 (OVCAR-4) was > 100 µM (inactive) and the GI50 (OVCAR-5) was > 100 µM (inactive). The GI50 (OVCAR-8) was > 100 µM (inactive), the GI50 (PC-3) was > 100 µM (inactive) and the GI50 (RXF 393) was 5.19 µM (inactive). For the same molecule, the GI50 (SF-295) was 76.9 µM (inactive), the GI50 (SF-539) was 10.7 µM (inactive) and the GI50 (SK-MEL-2) was > 100 µM (inactive). The GI50 (SK-MEL-5) was > 100 µM (inactive), the GI50 (SK-OV-3) was > 100 µM (inactive) and the GI50 (SN12C) was > 100 µM (inactive). For the same molecule, the GI50 (SNB-19) was 21.1 µM (inactive), the GI50 (SR) was > 100 µM (inactive) and the GI50 (SW-620) was > 100 µM (inactive). The GI50 (T47D) was > 100 µM (inactive), the GI50 (TK-10) was > 100 µM (inactive) and the GI50 (U-251) was 45 µM (inactive). The GI50 (UACC-257) was > 100 µM (inactive), the GI50 (UACC-62) was > 100 µM (inactive) and the GI50 (UO-31) was > 100 µM (inactive).

In the case of `CON(C)C(=O)C(C)N(Cc1ccccc1)Cc1ccccc1` (stereo not given), the GI50 (786-0) is reported as > 100 µM (inactive), the GI50 (A498) is reported as > 100 µM (inactive) and the GI50 (A549) is reported as 57 µM (inactive). The GI50 (ACHN) was 74.8 µM (inactive), the GI50 (BT-549) was 45.6 µM (inactive) and the GI50 (CCRF-CEM) was 50.8 µM (inactive). For the same molecule, the GI50 (DU-145) was > 100 µM (inactive), the GI50 (EKVX) was 65.8 µM (inactive) and the GI50 (HCC 2998) was > 100 µM (inactive). For the same molecule, the GI50 (HCT-116) was 50.2 µM (inactive), the GI50 (HCT-15) was 34.8 µM and the GI50 (HL-60) was 46.9 µM (inactive). The GI50 (HOP-62) was 23.3 µM (inactive), the GI50 (HOP-92) was > 100 µM (inactive) and the GI50 (HT-29) was 79.1 µM (inactive). The GI50 (Hs-578T) was 50 µM (inactive), the GI50 (IGROV-1) was 88.5 µM (inactive) and the GI50 (K562) was 40.5 µM (inactive). The GI50 (KM12) was > 100 µM (inactive), the GI50 (M14) was 68.7 µM (inactive) and the GI50 (MCF7) was 58.3 µM (inactive). For the same molecule, the GI50 (MDA-MB-435) was 88.9 µM (inactive), the GI50 (MDA-N) was > 100 µM (inactive) and the GI50 (MOLT-4) was 26.5 µM (inactive). For the same molecule, the GI50 (Malme-3M) was > 100 µM (inactive), the GI50 (NCI-H226) was 64.6 µM (inactive) and the GI50 (NCI-H23) was 46.3 µM (inactive). For the same molecule, the GI50 (NCI-H460) was 59 µM (inactive), the GI50 (NCI/ADR-RES) was 45.5 µM (inactive) and the GI50 (OVCAR-3) was 88.3 µM (inactive). For the same molecule, the GI50 (OVCAR-5) was > 100 µM (inactive), the GI50 (OVCAR-8) was > 100 µM (inactive) and the GI50 (PC-3) was 19.1 µM (inactive). For the same molecule, the GI50 (RPMI-8226) was 42.8 µM (inactive), the GI50 (RXF 393) was > 100 µM (inactive) and the GI50 (SF-268) was > 100 µM (inactive). The GI50 (SF-295) was > 100 µM (inactive), the GI50 (SF-539) was > 100 µM (inactive) and the GI50 (SK-MEL-28) was > 100 µM (inactive). The GI50 (SK-MEL-5) was 41.3 µM (inactive), the GI50 (SK-OV-3) was 66.8 µM (inactive) and the GI50 (SN12C) was > 10 µM (inactive). The GI50 (SNB-19) was > 100 µM (inactive), the GI50 (SNB-75) was 36.9 µM (inactive) and the GI50 (SR) was 69 µM (inactive). The GI50 (SW-620) was > 100 µM (inactive), the GI50 (TK-10) was > 100 µM (inactive) and the GI50 (U-251) was > 100 µM (inactive). For the same molecule, the GI50 (UACC-257) was 82 µM (inactive), the GI50 (UACC-62) was 66.2 µM (inactive) and the GI50 (UO-31) was 38.5 µM (inactive).
